From BigSolDB 2.1

C=C1CC[C@H](O)C/C1=C/C=C1\CCC[C@]2(C)[C@@H]([C@H](C)CCCC(C)C)CC[C@@H]12
solubility (mole fraction)
Details | in DMSO | in ethanol | in ethyl acetate | in ethylene glycol | in isopropanol | in n-butanol | in propylene glycol | in sec-butanol | in transcutol | in water
273.2 K | 0.0041 | 0.136 | 0.0904 | 0.000113 | 0.19 | 0.151 | 0.00142 | 0.154 | 0.369 | 1.87e-07
278.2 K | 0.00469 | 0.144 | 0.109 | 0.000161 | 0.202 | 0.157 | 0.00176 | 0.161 | 0.375 | 2.9e-07
283.2 K | 0.00533 | 0.153 | 0.131 | 0.000234 | 0.215 | 0.163 | 0.00209 | 0.168 | 0.382 | 4.22e-07
288.2 K | 0.00601 | 0.162 | 0.15 | 0.000318 | 0.225 | 0.169 | 0.00249 | 0.176 | 0.39 | 5.67e-07
298.2 K | 0.00723 | 0.177 | 0.195 | 0.000524 | 0.245 | 0.169 | 0.00337 | 0.187 | 0.403 | 1.03e-06

Details | solubility (mole fraction)
in PEG-400, 273.2 K | 0.0135
in PEG-400, 278.2 K | 0.0162
in PEG-400, 283.2 K | 0.0191
in PEG-400, 288.2 K | 0.0222
in PEG-400, 298.2 K | 0.0291
